Experimental data taken from patent US5198568A, “Compounds useful in enzymatic resolution systems and their preparation” (priority 1991, dated 1993).
Where a name gives a salt, the structure may show the parent alone. Values belong to the molecule of their own block, whether it stands above or below them.

Legend:
[1] = system: Protease XXIII from Aspergillus oryzae (Sigma, Enzyme A); assay: Homogeneous aqueous enzymatic resolution (ester hydrolysis), Enzyme A; type: biochemical
Description: No further purification was performed.

[2] = target: T1, Protease VIII, Subtilopeptidase A (subtilisin Carlsberg) (Sigma, Enzyme B) (Bacillus licheniformis, UniProt P00780); assay: Homogeneous aqueous enzymatic resolution (ester hydrolysis), Enzyme B; type: biochemical; details: for % e.e.: acid product
T1 sequence (P00780 106-379): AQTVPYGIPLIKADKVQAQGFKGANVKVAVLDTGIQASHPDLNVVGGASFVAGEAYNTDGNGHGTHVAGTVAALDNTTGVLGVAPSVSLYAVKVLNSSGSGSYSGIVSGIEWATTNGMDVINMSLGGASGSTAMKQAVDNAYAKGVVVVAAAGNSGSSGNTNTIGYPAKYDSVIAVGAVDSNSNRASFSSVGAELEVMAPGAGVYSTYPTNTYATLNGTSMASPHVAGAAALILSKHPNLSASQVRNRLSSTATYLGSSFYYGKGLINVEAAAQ

[3] = system: protease Prozyme 6 from Aspergillus oryzae (Amano, Enzyme F); assay: Homogeneous aqueous enzymatic resolution (ester hydrolysis), Enzyme F; type: biochemical; details: for % CONVERSION: 10 mmol ester in 100 ml 0.2M buffer pH 7.0, 25 C
Description: (§1) The enzymatic reaction mixtures were capped and briefly shaken until all the substrate had dissolved, and the enzyme had completely dissolved or dispersed. […] Evaporation of the ether left a white solid. Rotations were measured at c=1 in CHCl3.
as §1
The reaction was started by adding 100 mg of the protease (F) from the fungus Aspergillus oryzae (from Amano Enzyme Corporation, Prozyme 6, 60,000 units per mg of solid).
After 20 hours at room temperature, the solution was acidified to pH 2 and extracted with 3 volumes of diethyl ether. The aqueous phase was saved for subsequent workup. The ether phase was washed with two volumes of distilled water and then one volume of saturated sodium chloride, and then it was dried over MgSO4 and subsequently evaporated to dryness. The resolved ibuprofen product recovered was 930 mg of white powder, indicating 45% conversion of racemic ester to acid. The optical rotation was -0.580° (measured at c=1 in ethanol), indicating the R isomer of ibuprofen.
35 mg of protease Enzyme F, as the commercial preparation Prozyme 6, were added to the aqueous solution. The reaction flask was capped, and briefly shaken until all the enzyme had dissolved or dispersed. […] The resulting mixture was diluted with one volume of water and was extracted with diethyl ether (2 times 200 ml). The ether layers were combined and backwashed with water (2 times 200 ml), saturated NaCl solution (200 ml), and then dried over MgSO4.
In this control run, a 0.5M ester solution of (1) was prepared in 325 ml of 0.1M sodium phosphate buffer (pH 7.0). The reaction was started by adding 3 gm of the above enzyme (F). The pH was controlled at 7.0 with 8.22M sodium hydroxide. After 6.49 hours at 30 ° C., 6.63 ml of hydroxide were added, indicating 37.7% conversion. The reaction was allowed to continue overnight and, after 23.1 hours, a total of 7.2 ml of sodium hydroxide were added, indicating 40.9% conversion.

[4] = system: Candida lipase (Sigma L-1754, Enzyme H); assay: Asymmetric hydrolysis in a multiphase membrane bioreactor, Enzyme H; details: 210 gm neat ester
Description: The enzyme solution was recirculated from the shell side to the lumen side and back to the solution reservoir in an ultra-filtration mode. […] The procedure was completed in one hour.
After loading the enzyme to the reactor, recirculation of 210 gm. […] The recirculation rate was 400 ml/min and the average pressure on the shell compartment was kept at 6.5 psi by adjusting a throttling valve at the shell side exit. On the lumen side 1 liter of 0.05M K was recirculated at a rate of 400 ml/min. The pH of the aqueous reservoir was kept at 7.0 by addition of 1M NaOH. The reactor was run continuously for 6.8 days.
The reaction progress and rate were monitored by following the caustic consumption. […] The initial ester substrate to the reactor had no optical rotation.

[5] = system: lipase derived from Candida cylindracea (Genzyme, Enzyme G); assay: Asymmetric hydrolysis in a multiphase membrane bioreactor, Enzyme G
Description: 3.0 grams of the lipase were dissolved in 500 mls of distilled water; this solution was recirculated in an ultrafiltration mode from the shell into the lumen and back to the reservoir for 30 minutes. The ultrafiltrate was then collected until the reservoir was empty, and methyl isobutyl ketone (MIBK) was then pumped into the shell and recirculated at 400-450 ml/min with a 5-7 psig shell pressure to remove any remaining enzyme solution from the shell.
A reactor was prepared as described in Example 6.2.2.5 (naproxen) using essentially the same mode of loading the enzyme, 3.0 grams of Candida lipase (Enzyme G, from Genzyme Corporation) were ultrafiltered from the shell into the lumen. The enzyme was then washed with 2-3 l of distilled water and 1 l of potassium phosphate buffer (0.10 M, pH 7.7). The module was then drained.
No organic solvent was required as the substrate is already a water-immiscible liquid. Phosphate buffer was immediately pumped into the lumen and recirculated at 400-450 ml/min.
The reaction was monitored by following acid production based on hydroxide titration data. […] The aqueous buffer was replaced after 76 minutes and acidified to pH 2.0 with concentrated HCl in the presence of about 200 ml of chloroform.

[6] = system: Pig Liver Esterase (Sigma E-3128, Enzyme E); assay: Homogeneous aqueous enzymatic resolution (ester hydrolysis), Enzyme E; type: biochemical; details: 30 mg Pig Liver Esterase (E)
[7] = target: T2, Protease XXVII, Nagarse (Sigma, Enzyme D) (Bacillus amyloliquefaciens, UniProt P00782); assay: Homogeneous aqueous enzymatic resolution (ester hydrolysis), Enzyme D; type: biochemical; details: 150 mg enzyme D
T2 construct: purchased Sigma
T2 sequence (P00782 108-382): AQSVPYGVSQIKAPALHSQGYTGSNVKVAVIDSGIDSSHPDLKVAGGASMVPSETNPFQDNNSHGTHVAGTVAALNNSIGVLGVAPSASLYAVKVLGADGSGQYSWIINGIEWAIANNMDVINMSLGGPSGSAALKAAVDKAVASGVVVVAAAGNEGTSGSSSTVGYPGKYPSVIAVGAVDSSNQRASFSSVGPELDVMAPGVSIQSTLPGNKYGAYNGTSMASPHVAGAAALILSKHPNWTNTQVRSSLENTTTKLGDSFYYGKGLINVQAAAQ

[8] = 0.010 mol ester in 100 ml 0.2M sodium phosphate pH 7.8

SMILES: CC(C)Cc1ccc(C(C)C(=O)OCCS(=O)(=O)O)cc1 (stereo not shown) [Compound 2, Sodium Salt of 2-Sulfoethyl Ester of 2-(4-Isobutylphenyl)propanoic Acid]
- % e.e. ([2]; 150 mg enzyme B, 125 ml, pH 7.0, 18 hours): 90.0%
- % e.e. ([1]; acid product, 150 mg enzyme A, 125 ml, pH 7.0, 18 hours): > 99%

SMILES: CC(Oc1ccc(Cl)cc1)C(=O)OCS(=O)(=O)O (stereo not shown) [Compound 17, Sodium Salt of the Sulfomethyl Ester of 2-(4-Chlorophenoxy)propanoic Acid]
- completion of reaction ([3]; 35 mg Prozyme 6 (F), 10 mmol ester in 100 ml 0.2M sodium phosphate pH 7.0, 30 C, 1 hour): 22.5%

SMILES: CCCCCCCCOC(=O)C(C)Cl (stereo not shown) [Compound 20, Octyl Ester of 2-Chloropropanoic Acid]
- rate of ester hydrolysis at the beginning of the experiment ([4]; 30 grams lipase loaded, pH 7.0): 186 µmol/min
- initial ester hydrolyzed at termination ([4]; pH 7.0, run 6.8 days): 41%
- rate of ester hydrolysis at the end of the experiment ([4]; pH 7.0, run 6.8 days): 25 µmol/min

SMILES: CC(C)Cc1ccc(C(C)C(=O)OCCCCS(=O)(=O)O)cc1 (stereo not shown) [Compound 4, Potassium Salt of 4-Sulfobutyl Ester of 2-(4-Isobutylphenyl)propanoic Acid]
- % CONVERSION ([2]; 100 mg enzyme B, 10 mmol ester in 100 ml 0.2 M phosphate buffer pH 7.0, 20-22 C, 20 hours): 20.0%

SMILES: CC(C)Cc1ccc(C(C)C(=O)OCC(F)(F)F)cc1 (stereo not shown) [Compound 19, 2,2,2-Trifluoroethyl Ester of 2-(4-Isobutylphenyl)propanoic Acid]
- average hydrolytic rate, first 60 minutes ([5]; neat liquid ester, 3.0 grams lipase, pH 7.7): 160 µmol/min
- average hydrolysis rate, next 76 hours ([5]; neat liquid ester, 3.0 grams lipase, pH 7.7, by titrimetry): 21 µmol/min
- conversion to acid ([5]; neat liquid ester, 3.0 grams lipase, pH 7.7, over the 76 hours): about 9.8%

SMILES: CC(C)Cc1ccc(C(C)C(=O)OCCCS(=O)(=O)O)cc1 (racemic) [Compound 3, Potassium Salt of 3-SulfopropylEster of 2-(4-Isobutylphenyl)propanoic Acid]
- % CONVERSION [6, 8]: 12.1%
- % e.e. ([6]; acid product, pH 7.8): 88.0%
- % CONVERSION ([1]; 100 mg enzyme A, 10 mmol ester in 100 ml 0.2 M phosphate buffer pH 7.0, 20-22 C, 20 hours): 50.0%
- conversion of the racemic ester to acid ([1]; 1.00 gm enzyme A, about 1M ester, pH 7.0, room temperature, 23.9 hours, by NaOH titration): 29%
- % CONVERSION [7, 8]: 32.0%
- % e.e. ([7]; acid product, pH 7.8): 91.0%

SMILES: CC(C)Cc1ccc(C(C)C(=O)OCC[N+](C)(C)C)cc1 (racemic) [Compound 10, Iodide Salt of 2-(N,N,N-Trimethylammonium)ethyl Ester of 2-(4-Isobutylphenyl)propanoic Acid]
- % e.e. ([1]; acid product, 100 mg enzyme A, pH 7.0, 20-22 C, 20 hours): > 99%

SMILES: COc1ccc2cc(C(C)C(=O)OCC[N+](C)(C)C)ccc2c1 (stereo not shown) [Compound 11, Methyl Sulfate Salt of 2-(N,N,N-Trimethylammonium)ethyl Ester of 2-(6-Methoxy-2-naphthyl)propanoic Acid]
- % CONVERSION ([3]; 100 mg Prozyme 6 (F), 18 hours): 24.3%
- % e.e. ([3]; naproxen acid product, 100 mg Prozyme 6 (F), pH 7.0, 25 C, 18 hours): 34.0%

SMILES: CC(CSC(=O)c1ccccc1)C(=O)OCS(=O)(=O)O (racemic) [Compound 16, Potassium Salt of the Sulfomethyl Ester of (±)-S-3-Benzoylthio-2-methylpropanoic Acid]
- % CONVERSION ([2]; 100 mg enzyme B, 10.0 mmol ester in 100 ml 0.2M buffer pH 7.0, 25 C, 18 hours): 26%
- % e.e. ([2]; 100 mg enzyme B, pH 7.0, 25 C, 18 hours): 10%
- % CONVERSION ([1]; 100 mg enzyme A, 10.0 mmol ester in 100 ml 0.2M buffer pH 7.0, 25 C, 18 hours): 53%
- % e.e. ([1]; acid product, 100 mg enzyme A, pH 7.0, 25 C, 18 hours): 3%

SMILES: COC(=O)C(C)c1ccc2cc(OC)ccc2c1 (stereo not shown) [Compound 18, Methyl Ester of 2-(6-Methoxy-2-naphthyl)propanoic Acid]
- average rate of hydrolysis, first 45 minutes ([5]; 0.75M ester in MIBK, 3.0 grams lipase in 0.85 m2 module, pH 8.50): 35 µmol/h

Continued, values first:

- % e.e. ([1]; naproxen acid product, 150 mg enzyme A, pH 7.8 (Table 13)): 59.0%
SMILES: COc1ccc2cc(C(C)C(=O)OCCS(=O)(=O)O)ccc2c1 (stereo not shown) [Compound 8, Potassium Salt of 2-Sulfoethyl Ester of 2-(6-Methoxy-2-naphthyl) propanoic Acid]

- enantiomeric excess of S isomer of Naproxen (from unconverted ester hydrolyzed at pH 12) ([1]; 100 mg enzyme A, pH 7.5, 25 degrees, 16 hours, from rotation in CHCl3): 45.5%
SMILES: COc1ccc2cc(C(C)C(=O)OCS(=O)(=O)O)ccc2c1 (stereo not shown) [Compound 9, Sodium Salt of Sulfomethyl Ester of 2-(6-Methoxy-2-naphthyl)propanoic Acid]

- % e.e. ([1]; naproxen acid product, 150 mg enzyme A, pH 7.8, 18 hours (Table 12)): 78.0%
SMILES: COc1ccc2cc(C(C)C(=O)OCCCS(=O)(=O)O)ccc2c1 (stereo not shown) [Compound 7, Potassium Salt of the 3-Sulfopropyl Ester of 2-(6-Methoxy-2-naphthyl)propanoic Acid]

- % CONVERSION ([3]; 100 mg Prozyme 6 (F), 18 hours): 34.0%
SMILES: COc1ccc2cc(C(C)C(=O)OCCC[N+](C)(C)C)ccc2c1 (stereo not shown) [Compound 12, Methyl Sulfate Salt of 3-(N,N,N-Trimethylammonium)propyl Ester of 2-(6-Methoxy-2-naphthyl)propanoic Acid]
